This is an account of results in patent US20010044151A1, “Ligands for modulating the expression of exogenous genes via an ecdysone receptor complex” (priority 1998, published 2001).

The assay addresses T1, ecdysteroid receptor complex in Plodia interpunctella (IAL-PID2) nuclear extract (Plodia interpunctella, UniProt Q6RVD3).
T1 sequence (Q6RVD3 1-541): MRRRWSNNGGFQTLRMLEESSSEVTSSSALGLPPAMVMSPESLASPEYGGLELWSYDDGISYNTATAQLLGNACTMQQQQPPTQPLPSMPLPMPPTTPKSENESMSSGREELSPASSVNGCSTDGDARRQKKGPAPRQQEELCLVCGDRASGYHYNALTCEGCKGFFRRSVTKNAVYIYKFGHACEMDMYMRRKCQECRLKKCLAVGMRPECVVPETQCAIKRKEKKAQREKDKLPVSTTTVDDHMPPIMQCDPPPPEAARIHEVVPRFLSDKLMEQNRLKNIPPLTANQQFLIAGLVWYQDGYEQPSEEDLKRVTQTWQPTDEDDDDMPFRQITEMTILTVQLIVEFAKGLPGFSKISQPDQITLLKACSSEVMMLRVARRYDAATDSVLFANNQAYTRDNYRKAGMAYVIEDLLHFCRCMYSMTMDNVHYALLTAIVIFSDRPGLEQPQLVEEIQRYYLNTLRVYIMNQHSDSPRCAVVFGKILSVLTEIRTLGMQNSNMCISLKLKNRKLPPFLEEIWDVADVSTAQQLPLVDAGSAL
T1 sequence (Q6IVK1 1-415 partner): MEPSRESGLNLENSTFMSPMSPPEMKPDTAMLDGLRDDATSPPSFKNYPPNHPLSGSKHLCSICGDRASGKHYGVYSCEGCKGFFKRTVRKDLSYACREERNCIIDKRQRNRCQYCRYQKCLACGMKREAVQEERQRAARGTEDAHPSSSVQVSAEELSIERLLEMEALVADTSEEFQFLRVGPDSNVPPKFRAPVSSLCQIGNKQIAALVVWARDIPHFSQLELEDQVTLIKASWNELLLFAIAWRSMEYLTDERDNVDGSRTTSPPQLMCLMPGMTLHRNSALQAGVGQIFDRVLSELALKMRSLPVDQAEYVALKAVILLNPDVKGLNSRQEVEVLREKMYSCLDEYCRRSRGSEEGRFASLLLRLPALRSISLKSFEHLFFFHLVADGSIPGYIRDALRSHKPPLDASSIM
The assay can be described thus: Competitive 3H-ponasterone A binding assay, Plodia nuclear ecdysone receptor extract. The conditions noted are these: 3H-ponasterone A displacement. The protocol:
The cell line IAL-PID2, derived from imaginal wing discs of the lepidopteran Plodia interpunctella was obtained from H. Oberlander and maintained as described (Lynn, E. E. and Oberlander, H., (1983), J. Insect Physiology, 29, 591-96). A 300 ml stationary phase culture of P. interpunctella cells was centrifuged at 700×g for 10 mm at room temperature to pellet the cells. The supernatant was aspirated and the cellular pellet resuspended in 35 ml TMT (TM buffer with 0.1% Triton X-100). The suspension was homogenized with twenty up and down strokes of a Dounce homogenizer on ice. Homogenate was incubated on ice for 10 minutes and then centrifuged for 15 min at 900×g. The pellet was resuspenced in 15 ml TM buffer and centrifuged at 2,300×g. This pellet was extracted in TMK buffer (TM buffer with 800 mM KCl) by using a glass rod to crush the pellet until a gelatinous slurry was formed and incubated on ice for 15 minutes. The extract was centrifuged at 100,000×g in a swinging bucket rotor for 60 minutes. The supernatant, which constituted the nuclear extract, was desalted on a 10 DG desalting column (Bio-Rad, 732-2010) equilibrated with T-buffer. The total protein concentration in the nuclear extract was adjusted to 5 mg per ml with T-buffer containing 1 mM DTT.
^3H ponasterone A, a potent phytoecdysteroid, (66,000 dpm; specific activity 170 Ci/mmole; NEN Life Science Products, Boston, Mass.) was mixed with 100 μl Kc cytosolic or Plodia nuclear ecdysone receptor extracts in […] glass test tubes in the absence or presence of 10 μM unlabelled 20-hydroxyecdysone (20E) to obtain an estimate of total or non-specific respectively, binding of tritiated ponasterone A. The tubes were vortexed and incubated overnight at 4° C. for Kc cytosolic extracts or 1.5 hours for Plodia nuclear extracts for binding reactions to reach equilibrium. At the end of equilibrium binding times, the bound tritiated ponasterone A was separated from the unbound by addition of ice-cold 600 μl or 300 μl dextran-coated charcoal solution (500 mg of Sigma HCL-washed activated charcoal, 50 mg Pharmacia Dextran T70, 50 ml T-buffer) to Kc or Plodia extracts, respectively. The tubes were vortexed briefly and centrifuged at 7,000×g to pellet the charcoal. The supernatant, 600 μl or 300 μl for Kc or Plodia extract reactions, respectively, containing tritiated ponasterone A bound to proteins, was aspirated into liquid scintillation vials containing 5 ml scintillation cocktail (ReadySafe®, Beckmann) each The mixture was vortexed and the amount of total or non-specifically bound radioactivity measured in a Beckmann LS500 liquid scinitllation counter with a 60% counting efficiency for tritium.
The concentrations of competitors that inhibited 50% of tritiated ponasterone A binding (IC50) was determined by incubating Kc or Plodia nuclear extracts or extracts of bacteria producing CfEcR(CDEF)-GST and CfUSP-GST fusions proteins with ^3H-ponasterone A (66,000 dpm per reaction) in the presence of a range of concentrations (0.1 nM to 10 μM) of test compounds. In the case of binding reactions using bacterial fusion proteins, 20 or one μl extract of bacteria producing CfEcR(CDEF)-GST or CfUSP-GST fusion proteins, respectively, were included per binding reaction. The assay conditions and determination of total and non-specific binding was as described above. The volume of competitor in solvent, like that for 20E or solvent alone, was kept at 1% of total reaction volume by using a 100 fold concentrated stock solution (i.e. a 100 fold dilution of stock solutions). The remainder of the assay was as described above. Each reaction was carried out in duplicate per concentration per test compound. Specific binding of ^3H-ponasterone A was determined by subtracting non-specific binding (that obtained in the presence of 10 μM 20E) from total (no competitor) or competed radioactivity bound. […]
As to `Cc1cc(C)cc(C(=O)N(NC(=O)c2ccc3c(c2C)OCCO3)C(C)(C)C)c1` [Ligand 2], the “Plodia log(1/IC50)” value is 9.14.

As to `CCc1c(OC)cccc1C(=O)NN(C(=O)c1cc(F)cc(F)c1)C(C)(C)C` [Ligand 4], the “Plodia log(1/IC50)” value turned out to be 8.51.

Regarding `CCc1c(OC)cccc1C(=O)NN(C(=O)c1cccc(OC)c1)C(C)(C)C` [Ligand 1], the “Plodia log(1/IC50)” value came out at 8.52.

Regarding `COc1cccc(C(=O)NN(C(=O)c2cc(C)cc(C)c2)C(C)(C)C)c1C` [Ligand 3], the “Plodia log(1/IC50)” value was determined as 9.04.

With `CCc1c(OC)cccc1C(=O)NN(C(=O)c1cc(Cl)cc(Cl)c1)C(C)(C)C` [Ligand 13], the “Plodia log(1/IC50)” value stood at 9.06.

Turning to `CCc1c(OC)cccc1C(=O)NN(C(=O)c1cc(C)cc(C)c1)C(C)(C)C` [Ligand 5], the “Plodia log(1/IC50)” value is 9.49.

With `CCOc1cccc(C(=O)NN(C(=O)c2cc(C)cc(C)c2)C(C)(C)C)c1CC` [Ligand 12], the “Plodia log(1/IC50)” value was 9.63.
